Patent publication US20060128792A1, “Deguelin as a chemopreventive agent for lung cancer” (priority 2002, published 2006)
Several values for one entry are separate records, joined by “and”; a condition that tells them apart may be missing. Equal entries are not always repeated.

Tests used:
Test in all cases: MTT assay, growth inhibition by deguelin or deguelin derivatives
Assay type in all cases: cell-based
Conditions in all cases: 3 days; for % control: control = 1
H1299 = system: H1299
H460 = system: H460
H596 = system: H596
A549 = system: A549

COc1cc2c(cc1OC)C1C(=O)c3ccc4c(c3OC1CO2)CCC(C)(C)O4 (stereo not drawn) [Drug 11]
Average (MTT assay reading) (H1299; H1299, 0.01 μM): 0.5019
MTT assay reading, replicate well (H1299; H1299, 0.01 μM): 0.573 and 0.553 and 0.567 and 0.483 and 0.493 and 0.424 and 0.42
% control (H1299; H1299, 0.01 μM): 0.65
Average (MTT assay reading) (H1299; H1299, 0.1 μM): 0.2847
MTT assay reading, replicate well (H1299; H1299, 0.1 μM): 0.302 and 0.338 and 0.317 and 0.271 and 0.215 and 0.272 and 0.278
% control (H1299; H1299, 0.1 μM): 0.37
Average (MTT assay reading) (H1299; H1299, 0.5 μM): 0.3656
MTT assay reading, replicate well (H1299; H1299, 0.5 μM): 0.275 and 0.579 and 0.324 and 0.32 and 0.398 and 0.294 and 0.369
% control (H1299; H1299, 0.5 μM): 0.48
Average (MTT assay reading) (H1299; H1299, 1 μM): 0.2179
MTT assay reading, replicate well (H1299; H1299, 1 μM): 0.157 and 0.202 and 0.236 and 0.233 and 0.217 and 0.262 and 0.218
% control (H1299; H1299, 1 μM): 0.28
Average (MTT assay reading) (H460; H460, 0.01 μM): 0.6664
MTT assay reading, replicate well (H460; H460, 0.01 μM): 0.67 and 0.672 and 0.578 and 0.697 and 0.719 and 0.651 and 0.678
% control (H460; H460, 0.01 μM): 0.57
Average (MTT assay reading) (H460; H460, 0.1 μM): 0.3214
MTT assay reading, replicate well (H460; H460, 0.1 μM): 0.352 and 0.354 and 0.375 and 0.234 and 0.26 and 0.303 and 0.372
% control (H460; H460, 0.1 μM): 0.27
Average (MTT assay reading) (H460; H460, 0.5 μM): 0.3358
MTT assay reading, replicate well (H460; H460, 0.5 μM): 0.372 and 0.35 and 0.36 and 0.296 and 0.2577 and 0.283 and 0.432
% control (H460; H460, 0.5 μM): 0.29
Average (MTT assay reading) (H460; H460, 1 μM): 0.3296
MTT assay reading, replicate well (H460; H460, 1 μM): 0.314 (2×) and 0.376 and 0.344 and 0.302 and 0.291 and 0.366
% control (H460; H460, 1 μM): 0.28
Average (MTT assay reading) (H596; H596, 0.01 μM): 1.262
MTT assay reading, replicate well (H596; H596, 0.01 μM): 1.286 and 1.422 and 1.376 and 1.041 and 1.247 and 1.293 and 1.168
% control (H596; H596, 0.01 μM): 0.76
Average (MTT assay reading) (H596; H596, 0.1 μM): 0.6487
MTT assay reading, replicate well (H596; H596, 0.1 μM): 0.677 and 0.894 and 0.729 and 0.59 and 0.476 and 0.579 and 0.596
% control (H596; H596, 0.1 μM): 0.39
Average (MTT assay reading) (H596; H596, 0.5 μM): 0.4131
MTT assay reading, replicate well (H596; H596, 0.5 μM): 0.469 and 0.448 and 0.439 and 0.322 and 0.282 and 0.424 and 0.508
% control (H596; H596, 0.5 μM): 0.25
Average (MTT assay reading) (H596; H596, 1 μM): 0.4389
MTT assay reading, replicate well (H596; H596, 1 μM): 0.385 and 0.377 and 0.447 and 0.585 and 0.404 and 0.429 and 0.445
% control (H596; H596, 1 μM): 0.26
Average (MTT assay reading) (A549; A549, 0.01 μM): 0.7456
MTT assay reading, replicate well (A549; A549, 0.01 μM): 0.779 and 0.766 and 0.723 and 0.736 and 0.77 and 0.75 and 0.695
% control (A549; A549, 0.01 μM): 1.29
Average (MTT assay reading) (A549; A549, 0.1 μM): 0.3701
MTT assay reading, replicate well (A549; A549, 0.1 μM): 0.343 and 0.313 and 0.358 and 0.362 and 0.405 and 0.375 and 0.435
% control (A549; A549, 0.1 μM): 0.64
Average (MTT assay reading) (A549; A549, 0.5 μM): 0.4303
MTT assay reading, replicate well (A549; A549, 0.5 μM): 0.355 and 0.444 and 0.514 and 0.418 and 0.47 and 0.413 and 0.398
% control (A549; A549, 0.5 μM): 0.75
Average (MTT assay reading) (A549; A549, 1 μM): 0.345
MTT assay reading, replicate well (A549; A549, 1 μM): 0.303 and 0.302 and 0.313 and 0.359 and 0.422 and 0.316 and 0.4
% control (A549; A549, 1 μM): 0.60

COc1cc2c(cc1OC)C1C(=O)c3ccc4c(c3OC1CO2)CC([Se]c1ccccc1)C(C)(C)O4 (stereo not drawn) [Drug 12]
Average (MTT assay reading) (H1299; H1299, 0.01 μM): 0.5509
MTT assay reading, replicate well (H1299; H1299, 0.01 μM): 0.513 and 0.438 and 0.626 and 0.426 and 0.609 and 0.729 and 0.515
% control (H1299; H1299, 0.01 μM): 0.72
Average (MTT assay reading) (H1299; H1299, 0.1 μM): 0.4999
MTT assay reading, replicate well (H1299; H1299, 0.1 μM): 0.514 and 0.55 and 0.568 and 0.409 and 0.465 and 0.466 and 0.527
% control (H1299; H1299, 0.1 μM): 0.65
Average (MTT assay reading) (H1299; H1299, 0.5 μM): 0.628
MTT assay reading, replicate well (H1299; H1299, 0.5 μM): 0.637 and 0.549 and 0.636 and 0.614 and 0.847 and 0.655 and 0.458
% control (H1299; H1299, 0.5 μM): 0.82
Average (MTT assay reading) (H1299; H1299, 1 μM): 0.4001
MTT assay reading, replicate well (H1299; H1299, 1 μM): 0.434 and 0.41 and 0.413 and 0.451 and 0.378 and 0.357 and 0.358
% control (H1299; H1299, 1 μM): 0.52
Average (MTT assay reading) (H460; H460, 0.01 μM): 0.7451
MTT assay reading, replicate well (H460; H460, 0.01 μM): 0.763 and 0.753 and 0.691 and 0.648 and 0.765 and 0.774 and 0.822
% control (H460; H460, 0.01 μM): 0.64
Average (MTT assay reading) (H460; H460, 0.1 μM): 0.721
MTT assay reading, replicate well (H460; H460, 0.1 μM): 0.603 and 0.593 and 0.691 and 0.781 and 0.732 and 0.815 and 0.832
% control (H460; H460, 0.1 μM): 0.62
Average (MTT assay reading) (H460; H460, 0.5 μM): 0.7127
MTT assay reading, replicate well (H460; H460, 0.5 μM): 0.621 and 0.714 and 0.653 and 0.739 and 0.77 and 0.758 and 0.734
% control (H460; H460, 0.5 μM): 0.61
Average (MTT assay reading) (H460; H460, 1 μM): 0.7406
MTT assay reading, replicate well (H460; H460, 1 μM): 0.709 and 0.659 and 0.698 and 0.79 and 0.717 and 0.805 and 0.806
% control (H460; H460, 1 μM): 0.63
Average (MTT assay reading) (H596; H596, 0.01 μM): 1.421
MTT assay reading, replicate well (H596; H596, 0.01 μM): 1.468 and 1.111 and 1.465 and 1.374 and 1.701 and 1.481 and 1.344
% control (H596; H596, 0.01 μM): 0.86
Average (MTT assay reading) (H596; H596, 0.1 μM): 1.683
MTT assay reading, replicate well (H596; H596, 0.1 μM): 1.911 and 1.663 and 1.92 and 1.666 and 1.398 and 1.603 and 1.623
% control (H596; H596, 0.1 μM): 1.01
Average (MTT assay reading) (H596; H596, 0.5 μM): 1.737
MTT assay reading, replicate well (H596; H596, 0.5 μM): 1.686 and 1.82 and 1.177 and 1.899 and 1.872 and 2.048 and 1.655
% control (H596; H596, 0.5 μM): 1.05
Average (MTT assay reading) (H596; H596, 1 μM): 1.531
MTT assay reading, replicate well (H596; H596, 1 μM): 1.143 and 1.448 and 1.604 and 1.637 and 1.497 and 1.557 and 1.828
% control (H596; H596, 1 μM): 0.92
Average (MTT assay reading) (A549; A549, 0.01 μM): 0.6226
MTT assay reading, replicate well (A549; A549, 0.01 μM): 0.58 and 0.633 and 0.616 and 0.636 and 0.715 and 0.577 and 0.601
% control (A549; A549, 0.01 μM): 1.08
Average (MTT assay reading) (A549; A549, 0.1 μM): 0.6147
MTT assay reading, replicate well (A549; A549, 0.1 μM): 0.604 and 0.545 and 0.597 and 0.519 and 0.606 and 0.719 and 0.713
% control (A549; A549, 0.1 μM): 1.06
Average (MTT assay reading) (A549; A549, 0.5 μM): 0.5669
MTT assay reading, replicate well (A549; A549, 0.5 μM): 0.533 and 0.614 and 0.532 and 0.584 and 0.567 and 0.553 and 0.585
% control (A549; A549, 0.5 μM): 0.98
Average (MTT assay reading) (A549; A549, 1 μM): 0.5701
MTT assay reading, replicate well (A549; A549, 1 μM): 0.534 and 0.536 and 0.557 and 0.571 and 0.586 (2×) and 0.621
% control (A549; A549, 1 μM): 0.99
